Paper PMC8119466, “A screen of FDA-approved drugs identifies inhibitors of protein tyrosine phosphatase 4A3 (PTP4A3 or PRL-3)” (Scientific Reports, 2021)
Counter-ions that a name gives are not always drawn. Like-named read-outs stand apart in the source and are kept apart here.

How the values were obtained:
[1] = molecular target: T1, recombinant PRL-2 (Homo sapiens, UniProt Q12974); assay: In vitro phosphatase assay (DiFMUP hydrolysis), PRL-2; type: biochemical;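 also: PRL-2 activity read as DiFMUP hydrolysis after 20 min at room temperature with drug, enzyme first pre-reduced at 4 °C for 20 min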
T1 construct: 6xHis (N, cleaved yes); made in house; host or cells: E. coli One Shot BL21 Star
T1 sequence (Q12974 1-167): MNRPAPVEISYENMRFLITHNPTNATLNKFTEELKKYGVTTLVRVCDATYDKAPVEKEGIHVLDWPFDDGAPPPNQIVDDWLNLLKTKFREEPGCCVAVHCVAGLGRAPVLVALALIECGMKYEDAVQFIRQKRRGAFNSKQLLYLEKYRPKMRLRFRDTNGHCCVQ

[2] = molecular target: T2, recombinant PRL-3 (Homo sapiens, UniProt O75365); assay: In vitro phosphatase assay (DiFMUP hydrolysis), PRL-3; type: biochemical
T2 construct: 6xHis (N, cleaved yes); made in house; host or cells: E. coli One Shot BL21 Star
T2 sequence (O75365 whole entry): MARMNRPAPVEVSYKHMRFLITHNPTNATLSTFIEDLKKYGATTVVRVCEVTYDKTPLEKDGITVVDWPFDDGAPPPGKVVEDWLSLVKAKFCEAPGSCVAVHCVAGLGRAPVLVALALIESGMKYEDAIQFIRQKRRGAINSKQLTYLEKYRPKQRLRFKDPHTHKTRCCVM

[3] = FDA-approved drug screen, compared to DMSO
[4] = FDA-approved drug screen, activity compared to DMSO

Row | Molecule | % Phosphatase Activity (compared to DMSO) PRL-2 [1, 3] | % Phosphatase Activity (compared to DMSO) PRL-3 [2, 3] | further results
1 | Cc1ccc([C@@H]2O[C@H](CO)[C@@H](O)[C@H](O)[C@H]2O)cc1Cc1ccc(-c2ccc(F)cc2)s1 [Canagliflozin] | 106% | 90% | 
2 | COc1cc2c(cc1OC)[C@@]13CCN4CC5=CCO[C@H]6CC(=O)N2[C@H]1[C@H]6[C@H]5C[C@H]43 [Brucine] | 86% | 83% | 
3 | CC1(C)S[C@@H]2[C@H](NC(=O)[C@H](N)c3ccc(O)cc3)C(=O)N2[C@H]1C(=O)O [Amoxicillin] | 150% | 106% | 
4 | O=C(NCCN1CCOCC1)c1ccc(Cl)cc1 [Moclobemide (Ro 111163)] | 109% | 83% | 
5 | CCn1cc(C(=O)O)c(=O)c2cc(F)c(N3CCNCC3)nc21 [Enoxacin] | 95% | 98% | 
6 | Cc1c(-c2ccc(O)cc2)n(Cc2ccc(OCCN3CCCCCC3)cc2)c2ccc(O)cc12 [Bazedoxifene Acetate] | 106% |  | 
7 | CCC(C)n1ncn(-c2ccc(N3CCN(c4ccc(OCC5COC(Cn6cncn6)(c6ccc(Cl)cc6Cl)O5)cc4)CC3)cc2)c1=O (centres unmarked) [Itraconazole] | 93% | 74% | 
8 | COc1cc2nccc(Oc3ccc(NC(=O)C4(C(=O)Nc5ccc(F)cc5)CC4)cc3)c2cc1OC.O=C(O)C[C@H](O)C(=O)O [Cabozantinib malate (XL184)] | 115% | 96% | 
9 | N[C@@H](CSCCCO)C(=O)O [Fudosteine] | 75% | 92% | 
10 | C[N+](C)(C)CCCCCCCCCC[N+](C)(C)C [Decamethonium Bromide] | 118% | 71% | 
11 | CN(C/C=C/C#CC(C)(C)C)Cc1cccc2ccccc12 [Terbinafine] |  |  | % Phosphatase Activity (compared to DMSO) PRL-2 [1, 4]: 122%; % Phosphatase Activity (compared to DMSO) PRL-3 [2, 4]: 84%
12 | CCOc1ccc(NC(C)=O)cc1 [Phenacetin] | 114% | 81% | 
13 | Clc1ccccc1C(c1ccccc1)(c1ccccc1)n1ccnc1 [Clotrimazole] | 108% | 88% | 
14 | Cl.N=C(N=C(N)N)N1CCOCC1 [Moroxydine HCl] | 102% | 79% | 
15 | CCN(CC)CCOC(=O)C(c1ccccc1)c1ccccc1 [Adiphenine HCl] | 101% | 82% | 
16 | FC(F)(F)c1ccc(/C=C/c2nc(COc3ccc(CCCCn4ccnn4)cc3)co2)cc1 [Mubritinib (TAK 165)] |  |  | % Phosphatase Activity (compared to DMSO) PRL-2 [1]: 114%; % Phosphatase Activity (compared to DMSO) PRL-3 [2]: 101%
17 | N[C@@H]1CON=C1O [D-Cycloserine] | 101% | 95% | 
18 | CCC1(C)CC(=O)NC(=O)C1 [Bemegride] | 97% | 81% | 
19 | Cc1ccnc(NS(=O)(=O)c2ccc(N)cc2)n1 [Sulfamerazine] |  |  | % Phosphatase Activity (compared to DMSO) PRL-2 [1, 4]: 108%; % Phosphatase Activity (compared to DMSO) PRL-3 [2, 4]: 83%
20 | CC(C)N(CCNC(=O)CN1CCCC1=O)C(C)C [Pramiracetam] | 88% | 88% | 
21 | Cl.O=C(O)/C=C/c1ccc(Cn2ccnc2)cc1 [Ozagrel HCl] | 120% | 81% | 
22 | Br.COc1ccc2c3c1O[C@H]1C[C@@H](O)C=C[C@@]31CCN(C)C2 [Galanthamine HBr] | 85% | 93% | 
23 | C[C@@H](c1ncncc1F)[C@](O)(Cn1cncn1)c1ccc(F)cc1F [Voriconazole] |  |  | % Phosphatase Activity (compared to DMSO) PRL-2 [1, 4]: 92%; % Phosphatase Activity (compared to DMSO) PRL-3 [2, 4]: 86%
24 | O=C(O)c1ccccc1 [Benzoic Acid] | 101% | 76% | 
25 | CN(C)C/C=C/C(=O)Nc1cc2c(Nc3ccc(F)c(Cl)c3)ncnc2cc1O[C@H]1CCOC1 [Afatinib (BIBW2992)] | 106% | 85% | 
26 | C[N+]1(C)CCC(=C(c2ccccc2)c2ccccc2)CC1 [Diphemanil Methylsulfate] | 124% | 91% | 

Row | Molecule | % Phosphatase Activity (compared to DMSO) PRL-2 [1, 3] | % Phosphatase Activity (compared to DMSO) PRL-3 [2, 3] | further results
27 | Nc1nc2[nH]cc(CCc3ccc(C(=O)N[C@@H](CCC(=O)[O-])C(=O)[O-])cc3)c2c(=O)[nH]1.Nc1nc2[nH]cc(CCc3ccc(C(=O)N[C@@H](CCC(=O)[O-])C(=O)[O-])cc3)c2c(=O)[nH]1.O.O.O.O.O.[Na+].[Na+].[Na+].[Na+] [Pemetrexed Disodium Hydrate] | 101% | 108% | 
28 | C[C@@H]1C[C@H]2[C@@H]3CCC4=CC(=O)C=C[C@]4(C)[C@@]3(F)[C@@H](O)C[C@]2(C)[C@@]1(O)C(=O)CO [Dexamethasone, reference compound] |  |  | effect on PRL phosphatase activity (DiFMUP hydrolysis), in words ([2]; PRL-1, PRL-2, PRL-3 for research-grade inhibitors, PRL-3 for Dexamethasone): no effect on PRL-3 phosphatase activity
29 | Bleomycin Sulfate | 100% | 64% | 
30 | CN1CCC(COc2cnc(-c3cccc(Cn4nc(-c5cccc(C#N)c5)ccc4=O)c3)nc2)CC1 [Tepotinib (EMD 1214063)] |  |  | % Phosphatase Activity (compared to DMSO) PRL-2 [1, 4]: 110%; % Phosphatase Activity (compared to DMSO) PRL-3 [2, 4]: 113%
31 | COc1cc(OC)c(C(=O)CCCN2CCCC2)c(OC)c1.Cl [Buflomedil HCl] | 118% | 87% | 
32 | COc1cc(Cc2cnc(N)nc2N)cc(OC)c1OC [Trimethoprim] |  |  | % Phosphatase Activity (compared to DMSO) PRL-2 [1]: 107%; % Phosphatase Activity (compared to DMSO) PRL-3 [2]: 79%
33 | CC1(C)CCC(CN2CCN(c3ccc(C(=O)NS(=O)(=O)c4ccc(NCC5CCOCC5)c([N+](=O)[O-])c4)c(Oc4cnc5[nH]ccc5c4)c3)CC2)=C(c2ccc(Cl)cc2)C1 [ABT-199, reference compound] |  |  | selectivity in inhibiting PRL-2 over other PRLs ([1]; drug 40 µM): demonstrated selectivity in inhibiting PRL-2
34 | C[C@@H](Oc1cc(-c2cnn(C3CCNCC3)c2)cnc1N)c1c(Cl)ccc(F)c1Cl [Crizotinib (PF-02341066)] | 119% | 81% | 
35 | CC1(C)O[C@@H]2C[C@H]3[C@@H]4CCC5=CC(=O)CC[C@]5(C)[C@@]4(F)[C@@H](O)C[C@]3(C)[C@]2(C(=O)CCl)O1 [Halcinonide] | 105% | 93% | 
36 | Nc1c2c(nc3ccccc13)CCCC2 [Tacrine HCl] |  |  | % Phosphatase Activity (compared to DMSO) PRL-2 [1]: 89%; % Phosphatase Activity (compared to DMSO) PRL-3 [2]: 89%
37 | L-Adrenaline |  |  | % Phosphatase Activity (compared to DMSO) PRL-2 [1]: 98%; % Phosphatase Activity (compared to DMSO) PRL-3 [2]: 71%
38 | COC(=O)C1=C(C)NC(C)=C(C(=O)OCCN2CCN(C(c3ccccc3)c3ccccc3)CC2)C1c1cccc([N+](=O)[O-])c1 (centres unmarked) [Manidipine] | 93% | 77% | 
39 | CN1[C@@H]2CC[C@H]1C[C@@H](OC(=O)c1c[nH]c3ccccc13)C2 [Tropisetron] |  |  | % Phosphatase Activity (compared to DMSO) PRL-2 [1, 4]: 100%; % Phosphatase Activity (compared to DMSO) PRL-3 [2, 4]: 93%
40 | C#C[C@]1(O)CC[C@H]2[C@@H]3CCc4cc(OC)ccc4[C@H]3CC[C@@]21C [Mestranol] | 99% | 77% | 
41 | CC[C@@H](C(N)=O)N1CCCC1=O [Levetiracetam] | 90% | 71% | 
42 | OC(Cn1cncn1)(Cn1cncn1)c1ccc(F)cc1F [Fluconazole] | 97% | 76% | 
43 | COc1ccc([C@]2(C#N)CC[C@@H](C(=O)O)CC2)cc1OC1CCCC1 [Cilomilast] | 99% | 88% | 
44 | O=c1[nH]cc(F)c(=O)[nH]1 [Fluorouracil (5-Fluoracil, 5-FU)] | 109% | 75% | 
45 | CC[C@H]1OC(=O)[C@H](C)[C@@H](O[C@H]2C[C@@](C)(OC)[C@@H](O)[C@H](C)O2)[C@H](C)[C@@H](O[C@@H]2O[C@H](C)C[C@H](N(C)C)[C@H]2O)[C@](C)(OC)C[C@@H](C)C(=O)[C@H](C)[C@@H](O)[C@]1(C)O [Clarithromycin] | 111% | 86% | 
46 | CC/C(=C(\c1ccccc1)c1ccc(OCCN(C)C)cc1)c1ccccc1 [Tamoxifen] |  |  | % Phosphatase Activity (compared to DMSO) PRL-2 [1, 4]: 110%; % Phosphatase Activity (compared to DMSO) PRL-3 [2, 4]: 81%
47 | CC1(C)S[C@@H]2[C@H](NC(=O)C(C(=O)O)c3ccccc3)C(=O)N2[C@H]1C(=O)O (some centres unmarked) [Carbenicillin disodium] | 101% | 87% | 
48 | CC1(C)S[C@@H]2[C@H](NC(=O)Cc3ccccc3)C(=O)N2[C@H]1C(=O)O [Penicillin G Sodium] | 105% | 75% | 
49 | CCN[C@H]1C[C@H](C)S(=O)(=O)c2sc(S(N)(=O)=O)cc21 [Dorzolamide HCl] | 81% | 87% | 
50 | CN(C)CCC(c1ccc(Cl)cc1)c1ccccn1 (centres unmarked) [Chlorpheniramine Maleate] | 103% | 104% | 
51 | Aprotinin | 90% |  | 
